Results on 14 compounds are retold here after patent publication US5292887A, “Substituted imidazole derivatives and their preparation and use” (priority 1988, dated 1994).

For test [1], the system named is isolated rat pancreas (postsynaptic α2-adrenoceptors). Nature of the test: Potentiation of insulin release from isolated perfused pancreas. Also noted: species or system rat (Sprague-Dawley). The note with it: 1 × 10^-6 M, 11 mM glucose; for Insulin in the perfusate, -5 min: before compound addition. On the procedure:
3. Potentiation of insulin release from isolated pancreas
Samples for determination of insulin concentration in the perfusate were collected before and during 30 min after adding the studied compounds+glucose. Insulin was measured by a RIA-kit (NOVO).

Another test deals with T1, α1-adrenoceptor (Rattus norvegicus, UniProt P43140).
T1 sequence (P43140 1-466): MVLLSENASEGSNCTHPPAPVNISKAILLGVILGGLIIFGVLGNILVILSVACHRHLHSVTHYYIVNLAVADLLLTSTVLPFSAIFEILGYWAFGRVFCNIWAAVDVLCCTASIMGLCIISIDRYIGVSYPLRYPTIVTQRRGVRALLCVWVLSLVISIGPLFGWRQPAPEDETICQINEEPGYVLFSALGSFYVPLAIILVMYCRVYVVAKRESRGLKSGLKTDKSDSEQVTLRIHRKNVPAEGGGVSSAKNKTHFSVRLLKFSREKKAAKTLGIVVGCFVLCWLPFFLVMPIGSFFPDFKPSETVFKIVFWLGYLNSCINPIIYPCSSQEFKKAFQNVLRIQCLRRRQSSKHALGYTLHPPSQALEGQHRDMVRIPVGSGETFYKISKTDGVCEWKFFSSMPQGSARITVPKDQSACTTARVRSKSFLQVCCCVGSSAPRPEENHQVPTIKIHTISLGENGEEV
Nature of the test: α1-adrenoceptor antagonism, phenylephrine-induced contraction of isolated anococcygeus muscle. The note with it: vs phenylephrine, read-out: α1-antagonism (pA2 vs phenylephrine) (converted). On the procedure: 2. α1 -adrenoceptor antagonism
To obtain information also on the selectivity of the antagonist between α1 - and α2 -receptors, its ability to inhibit α1 -receptors was determined by means of isolated anococcygeus muscle (rat). The reference substances were now phenylephrine, a known α1 -agonist, and prazosin, a known α1 -antagonist. To determine α1 -antagonism, muscular contraction was induced by phenylephrine and the pA2 value of the studied compound was determined (Arunlakshana & Schild, Br. J. Pharmacol. 14, 48-62, 1959).

Test [2] concerns the target T2, α2-adrenoceptor (Rattus norvegicus, UniProt P22909).
T2 construct: In anaesthetized rat, a standard dose of detomidine was administered intravenously; from tissue; host or cells: whole anaesthetized rat (pupil response, in vivo)
T2 sequence (P22909 1-465): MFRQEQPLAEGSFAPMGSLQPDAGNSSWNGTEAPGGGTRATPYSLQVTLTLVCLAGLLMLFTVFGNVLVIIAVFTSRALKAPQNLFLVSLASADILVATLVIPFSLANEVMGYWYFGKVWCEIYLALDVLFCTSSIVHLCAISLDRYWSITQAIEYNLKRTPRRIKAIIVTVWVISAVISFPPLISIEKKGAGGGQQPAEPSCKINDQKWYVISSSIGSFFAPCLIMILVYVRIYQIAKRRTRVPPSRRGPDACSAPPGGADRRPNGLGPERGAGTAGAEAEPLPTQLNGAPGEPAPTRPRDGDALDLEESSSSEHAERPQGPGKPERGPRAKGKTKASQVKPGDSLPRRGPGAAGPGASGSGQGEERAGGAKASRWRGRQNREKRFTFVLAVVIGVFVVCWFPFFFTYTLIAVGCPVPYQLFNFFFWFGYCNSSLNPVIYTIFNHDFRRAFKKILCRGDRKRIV
The test is described as follows: Duration of the α2-blocking action (time for antagonism of detomidine mydriasis to fall by half, oral). The format is in vivo. The conditions noted are these: oral at equipotent doses, time taken for antagonism of 0,1 mg/kg detomidine mydriasis to fall by half. Here is the method:
It is known that in the rat α2 -agonists induce dilatation of the pupil (mydriasis) which effect is transmitted via postsynaptic α2 -receptors. In anaesthetized rat, a standard dose of detomidine was administered intravenously. Thereafter increasing doses of the studied antagonist were injected intravenously and the reversal of detomidine-induced mydriasis was followed. The ED50 value of the antagonist, i.e. the dose producing a 50 per cent reversal, was determined.
The duration of the α2 -blocking action of the compounds was determined as follows: the antagonists were administered orally at eqvipotent doses to groups of 4 rats 1, 2, 4, 7 or 16 hours before induction of anaesthesia and challenge with cumulative i.v. dosing of detomidine. By calculating the percentage antagonism of the mydriatic effect of 0,1 mg/kg detomidine for each pretreatment group, a time-effect relationship was established. This in turn permitted the measurement of the time taken for the antagonist effect to fall by half.

In test [3] the target is T2, α2-adrenoceptor. The test is described as follows: Reversal of detomidine-induced mydriasis in anaesthetized rat (α2-adrenoceptor antagonism). The format is in vivo. The conditions noted are these: dose producing 50 per cent reversal of detomidine-induced mydriasis; for ED50: iv.

Bounds are passed on as bounds.

For `CCC1(c2cnc[nH]2)Cc2ccccc2C1` [atipamezole, reference compound], in test [1], the “Insulin in the perfusate, +1 min” value came out at 5.0 ng/mL; the “Insulin in the perfusate, +10 min” value was found to be 3.0 ng/mL; the “Insulin in the perfusate, +20 min” value came to 6.3 ng/mL; the “Insulin in the perfusate, +30 min” value turned out to be 15.1 ng/mL. In addition, in test [1], the “Insulin in the perfusate, -5 min” value is less than 0.1 ng/mL. In addition, the Kb at α1-adrenoceptor was more than 10 µM. The “Duration of α2-antagonism” value on α2-adrenoceptor [2] worked out at 1.0 h.
`CCC1(c2cn(C)cn2)Cc2ccccc2C1` [compound 1, 4-(2-ethyl-2,3-dihydro-1H-inden-2-yl)-1-methyl-1H-imidazole]: the Kb on α1-adrenoceptor was 7.94 µM. Further, the “Duration of α2-antagonism” value at α2-adrenoceptor [2] is 2.0 h. At α2-adrenoceptor [3], the ED50 (usually the midpoint of the dose-response relation) amounted to 0.3 mg/kg.
In the case of `CCn1cnc(C2(CC)Cc3ccccc3C2)c1` [compound 2, 1-ethyl-4-(2-ethyl-2,3-dihydro-1H-inden-2-yl)-1H-imidazole], the Kb at α1-adrenoceptor was 6.31 µM. Also, the ED50 on α2-adrenoceptor [3] turned out to be 0.2 mg/kg.
`CCCn1cnc(C2(CC)Cc3ccccc3C2)c1` [compound 3, 4-(2-ethyl-2,3-dihydro-1H-inden-2-yl)-1-n-propyl-1H-imidazole]: at α1-adrenoceptor, the Kb is 6.31 µM. Moreover, the median effective dose (ED50) at α2-adrenoceptor [3] was 0.3 mg/kg.
For `CCC1(c2cn(Cc3ccccc3)cn2)Cc2ccccc2C1` [compound 4, 1-benzyl-4-(2-ethyl-2,3-dihydro-1H-inden-2-yl)-1H-imidazole], the Kb on α1-adrenoceptor was 1 µM. The ED50 at α2-adrenoceptor [3] was 2 mg/kg.
As for `CCC1(c2cn(C)cn2)Cc2ccccc2C1=O` (stereo not drawn) [compound 5, 2-ethyl-2-(1-methyl-1H-imidazol-4-yl)-1-indanone], on α1-adrenoceptor, the Kb is more than 10 µM. Moreover, the “Duration of α2-antagonism” value at α2-adrenoceptor [2] came out at 11.0 h. Also, on α2-adrenoceptor [3], the ED50 stood at 0.1 mg/kg.
Regarding `OCC1(c2c[nH]cn2)Cc2ccccc2C1` [compound 6, [2,3-dihydro-2-(1H-imidazol-4-yl)-1H-inden-2-yl]methanol], the Kb at α1-adrenoceptor is more than 10 µM. The ED50 on α2-adrenoceptor [3] worked out at 0.2 mg/kg.
In the case of `COCC1(c2cn(C)cn2)Cc2ccccc2C1` [compound 7, 4-(2,3-dihydro-2-methoxymethyl-1H-inden-2-yl)-1-methyl-1H-imidazole], in test [1], the “Insulin in the perfusate, +1 min” value was 26.0 ng/mL; the “Insulin in the perfusate, +10 min” value is 11.5 ng/mL; the “Insulin in the perfusate, +20 min” value came to 15.9 ng/mL; the “Insulin in the perfusate, +30 min” value was determined as 22.0 ng/mL. In test [1], the “Insulin in the perfusate, -5 min” value was less than 0.1 ng/mL. Also, the Kb on α1-adrenoceptor was more than 10 µM. Moreover, the “Duration of α2-antagonism” value on α2-adrenoceptor [2] amounted to 7.0 h. Moreover, the ED50 at α2-adrenoceptor [3] worked out at 0.3 mg/kg.
On to `CCCC1(c2cn(CC)cn2)Cc2ccccc2C1` [compound 8, 1-ethyl-4-(2,3-dihydro-2-n-propyl-1H-inden-2-yl)-1H-imidazole], for which the Kb on α1-adrenoceptor is more than 10 µM. In addition, the ED50 at α2-adrenoceptor [3] worked out at 0.3 mg/kg.
With `CCCC1(c2cn(C)cn2)Cc2ccccc2C1` [compound 9, 4-(2,3-dihydro-2-n-propyl-1H-inden-2-yl)-1-methyl-1H-imidazole], the Kb at α1-adrenoceptor is more than 10 µM. In addition, the ED50 at α2-adrenoceptor [3] came to 0.3 mg/kg.
Turning to `CCn1cnc(C2(CO)Cc3ccccc3C2)c1` [compound 10, [2-(1-ethyl-1H-imidazol-4-yl)-2,3-dihydro-1H-inden-2-yl]methanol], the Kb on α1-adrenoceptor is more than 10 µM. Further, the “Duration of α2-antagonism” value on α2-adrenoceptor [2] was found to be 7.0 h. The ED50 at α2-adrenoceptor [3] came to 0.3 mg/kg.
For the compound `CCn1cnc(C2(COC)Cc3ccccc3C2)c1` [compound 11, 1-ethyl-4-(2,3-dihydro-2-methoxymethyl-1H-inden-2-yl)-1H-imidazole], at α1-adrenoceptor, the Kb is more than 10 µM. Moreover, the “Duration of α2-antagonism” value on α2-adrenoceptor [2] turned out to be 7.0 h. Moreover, on α2-adrenoceptor [3], the ED50 amounted to 0.1 mg/kg.
The corresponding values for `CCn1cnc(C2(CC)Cc3ccccc3C2=O)c1` (stereo not drawn) [compound 12, 2-ethyl-2-(1-ethyl-1H-imidazol-4-yl)-1-indanone] are more than 10 µM, 16.0 h and 0.2 mg/kg.
For `c1ccc2c(c1)OCC(C1=NCCN1)O2` (stereo not drawn) [idazoxan, reference compound], on α1-adrenoceptor, the Kb was 5.01 µM. At α2-adrenoceptor [2], the “Duration of α2-antagonism” value was less than 1 h. The “α2-antagonism (ED50 vs detomidine)” value at α2-adrenoceptor [3] (i.v.) was 0.02 mg/kg.
